Measurements taken from ChEMBL document CHEMBL2163236, “7-Oxo-[1,4]oxazino[2,3,4-ij]quinoline-6-carboxamides as selective CB(2) cannabinoid receptor ligands: structural investigations around a novel class of full agonists” (J Med Chem, 2012).
pIC50, pKi: −log10 of the molar value.

How the values were obtained:
Cannabinoid receptor 2 [1] = biological target: T1, Cannabinoid receptor 2 (Rattus norvegicus, UniProt Q9QZN9); test: Displacement of [3H]CP-55940 from CB2 receptor in Sprague-Dawley rat spleen by scintillation counting
T1 sequence (Q9QZN9 whole entry): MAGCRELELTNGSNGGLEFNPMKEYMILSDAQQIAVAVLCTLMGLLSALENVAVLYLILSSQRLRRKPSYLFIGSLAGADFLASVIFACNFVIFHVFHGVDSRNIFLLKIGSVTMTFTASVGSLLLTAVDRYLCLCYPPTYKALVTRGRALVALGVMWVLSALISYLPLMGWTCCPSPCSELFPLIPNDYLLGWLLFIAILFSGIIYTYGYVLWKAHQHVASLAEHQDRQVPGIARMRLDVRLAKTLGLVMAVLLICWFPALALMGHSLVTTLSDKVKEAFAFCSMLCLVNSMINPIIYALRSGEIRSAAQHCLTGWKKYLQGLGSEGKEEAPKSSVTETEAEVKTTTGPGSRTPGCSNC

Cannabinoid receptor 1 [2] = biological target: Cannabinoid receptor 1 (Homo sapiens, UniProt P21554); test: Displacement of [3H]CP-55940 from human recombinant CB1 receptor expressed in CHO cell membranes incubated for 90 mins by scintillation counting
Chain of Cannabinoid receptor 1 (Homo sapiens, UniProt P21554) (P21554 whole entry): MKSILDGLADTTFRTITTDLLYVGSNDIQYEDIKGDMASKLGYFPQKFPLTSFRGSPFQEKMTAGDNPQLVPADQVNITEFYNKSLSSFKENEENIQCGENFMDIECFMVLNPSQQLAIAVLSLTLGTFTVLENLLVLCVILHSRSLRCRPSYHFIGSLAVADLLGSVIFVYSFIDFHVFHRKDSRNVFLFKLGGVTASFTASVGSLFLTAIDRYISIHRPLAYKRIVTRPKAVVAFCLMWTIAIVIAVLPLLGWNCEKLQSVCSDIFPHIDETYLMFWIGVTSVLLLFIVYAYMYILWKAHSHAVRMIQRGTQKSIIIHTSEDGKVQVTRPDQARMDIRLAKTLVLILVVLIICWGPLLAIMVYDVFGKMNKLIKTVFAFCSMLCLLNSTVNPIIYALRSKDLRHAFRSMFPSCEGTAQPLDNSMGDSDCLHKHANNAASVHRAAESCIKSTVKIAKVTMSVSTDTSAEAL

Cannabinoid receptor 2 [3] = biological target: T2, Cannabinoid receptor 2 (Homo sapiens, UniProt P34972); test: Displacement of [3H]CP-55940 from human recombinant CB2 receptor expressed in CHO cell membranes incubated for 60 mins by scintillation counting
T2 sequence (P34972 whole entry): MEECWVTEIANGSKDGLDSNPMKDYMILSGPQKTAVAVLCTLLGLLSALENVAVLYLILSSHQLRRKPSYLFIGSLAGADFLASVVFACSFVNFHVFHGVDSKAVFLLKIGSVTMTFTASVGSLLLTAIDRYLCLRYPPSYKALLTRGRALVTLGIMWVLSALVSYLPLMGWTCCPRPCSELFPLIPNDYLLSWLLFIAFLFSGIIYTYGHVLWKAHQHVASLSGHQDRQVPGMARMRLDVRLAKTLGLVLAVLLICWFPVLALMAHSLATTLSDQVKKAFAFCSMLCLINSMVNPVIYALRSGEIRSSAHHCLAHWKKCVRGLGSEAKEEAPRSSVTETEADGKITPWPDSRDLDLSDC

Cannabinoid receptor 1 [4] = biological target: Cannabinoid receptor 1 (Rattus norvegicus, UniProt P20272); test: Displacement of [3H]CP-55940 from CB1 receptor in Sprague-Dawley rat brain by scintillation counting
Chain of Cannabinoid receptor 1 (Rattus norvegicus, UniProt P20272) (P20272 whole entry): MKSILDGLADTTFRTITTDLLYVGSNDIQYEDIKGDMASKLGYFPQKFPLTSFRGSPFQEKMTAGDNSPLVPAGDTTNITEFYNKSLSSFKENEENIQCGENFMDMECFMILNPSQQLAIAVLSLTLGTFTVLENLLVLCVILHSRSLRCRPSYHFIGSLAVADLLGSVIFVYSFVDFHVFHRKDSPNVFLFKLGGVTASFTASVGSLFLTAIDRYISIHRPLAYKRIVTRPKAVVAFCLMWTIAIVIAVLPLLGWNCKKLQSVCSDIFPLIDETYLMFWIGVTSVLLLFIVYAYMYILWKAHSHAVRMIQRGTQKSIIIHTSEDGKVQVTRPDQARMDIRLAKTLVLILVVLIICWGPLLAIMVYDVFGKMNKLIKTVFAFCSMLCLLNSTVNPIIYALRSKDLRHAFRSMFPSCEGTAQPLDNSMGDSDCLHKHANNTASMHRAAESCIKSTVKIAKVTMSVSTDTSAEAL

Cannabinoid receptor 2 [5] = biological target: T2, Cannabinoid receptor 2; test: Agonist activity at human recombinant CB2 receptor expressed in CHO cell membranes assessed as inhibition of forskolin-induced cAMP accumulation; format: functional, cell-based
Homo sapiens = species on record: Homo sapiens; test: Selectivity ratio of Ki for human recombinant CB1 receptor to KI for human recombinant CB2 receptor

| Structure (SMILES) | pKi (Cannabinoid receptor 2 [1]) | pKi (Cannabinoid receptor 1 [2]) | pKi (Cannabinoid receptor 2 [3]) | pKi (Cannabinoid receptor 1 [4]) | pIC50 (Cannabinoid receptor 2 [5]) | Ratio Ki (Homo sapiens) |
| --- | --- | --- | --- | --- | --- | --- |
| C[C@@H]1COc2cccc3c(=O)c(C(=O)NC4CCCCC4)cn1c23 | 7.52 | 5.54 | 7.62 | 5.45 | 7.05 | 119 |
| C[C@H]1COc2cccc3c(=O)c(C(=O)NC4CCCCC4)cn1c23 | 6.60 | 5.33 | 6.73 | 5.28 | 6.14 | 25 |
| C[C@@H]1COc2cccc3c(=O)c(C(=O)NC45CC6CC(CC(C6)C4)C5)cn1c23 | 7.28 | < 5.00 | 7.33 | < 5.00 | 6.82 | > 212 |
| C[C@H]1COc2cccc3c(=O)c(C(=O)NC45CC6CC(CC(C6)C4)C5)cn1c23 | 7.07 | < 5.00 | 7.11 | < 5.00 | 6.60 | > 128 |
| CC[C@@H]1COc2cccc3c(=O)c(C(=O)NC4CCCCCC4)cn1c23 | 8.22 | 6.98 | 8.39 | 6.90 | 7.76 | 25 |
| CC[C@H]1COc2cccc3c(=O)c(C(=O)NC4CCCCCC4)cn1c23 | 6.69 | 6.07 | 6.73 | 6.04 | 6.17 | 4.5 |
| CC[C@@H]1COc2cccc3c(=O)c(C(=O)NC45CC6CC(CC(C6)C4)C5)cn1c23 | 8.21 | 6.71 | 8.31 | 6.62 | 7.74 | 40 |
| CC[C@H]1COc2cccc3c(=O)c(C(=O)NC45CC6CC(CC(C6)C4)C5)cn1c23 | 7.01 | 6.24 | 7.06 | 6.19 | 6.38 | 7 |
| CC(C)[C@@H]1COc2cccc3c(=O)c(C(=O)NC45CC6CC(CC(C6)C4)C5)cn1c23 | 8.76 | 7.06 | 8.91 | 7.02 | 8.01 | 71 |
| CC(C)[C@H]1COc2cccc3c(=O)c(C(=O)NC45CC6CC(CC(C6)C4)C5)cn1c23 | 7.71 | 6.07 | 7.79 | 6.06 | 7.26 | 53 |
| CC(C)C[C@@H]1COc2cccc3c(=O)c(C(=O)NC45CC6CC(CC(C6)C4)C5)cn1c23 | 7.99 | < 5.00 | 8.03 | < 5.00 | 7.44 | > 1080 |
| O=C(NC12CC3CC(CC(C3)C1)C2)c1cn2c3c(cccc3c1=O)OC[C@H]2Cc1ccccc1 | 8.33 | 6.98 | 8.43 | 6.92 | 7.76 | 28 |
| CC1(C)COc2cccc3c(=O)c(C(=O)NC45CC6CC(CC(C6)C4)C5)cn1c23 | 7.17 | 6.66 | 7.25 | 6.56 | 6.62 | 4 |
| CCC1COc2c(N3CCCC3)ccc3c(=O)c(C(=O)NC45CC6CC(CC(C6)C4)C5)cn1c23 (racemic) | 7.98 | < 5.00 | 8.09 | < 5.00 | 7.54 | > 1230 |
| CCC1COc2c(N3CCN(C)CC3)ccc3c(=O)c(C(=O)NC45CC6CC(CC(C6)C4)C5)cn1c23 (racemic) | 7.21 | < 5.00 | 7.38 | < 5.00 | 6.71 | > 238 |
| CCCC1COc2cccc3c(=O)c(C(=O)NC4CCCCC4)cn1c23 (racemic) | 8.74 | 7.99 | 9.49 | 7.87 | 8.82 | 32 |
| CCCC1COc2cccc3c(=O)c(C(=O)NC45CC6CC(CC(C6)C4)C5)cn1c23 (racemic) | 8.56 | 6.67 | 8.63 | 6.62 | 7.82 | 92 |
| CCCC1COc2cccc3c(=O)c(C(=O)NC45CC6CC(C)(CC(C)(C6)C4)C5)cn1c23 (racemic) | 7.97 | 6.70 | 8.44 | 6.32 | 7.70 | 55 |
| CCCC1COc2ccc(C)c3c(=O)c(C(=O)NC4CCCCC4)cn1c23 (racemic) | 7.37 | 6.12 | 7.42 | 6.06 | 6.91 | 20 |
| CCCC1COc2ccc(C)c3c(=O)c(C(=O)NC45CC6CC(CC(C6)C4)C5)cn1c23 (racemic) | 7.88 | 6.35 | 7.98 | 6.32 | 7.38 | 43 |
| O=C(NC1CCCCC1)c1cn2c3c(cccc3c1=O)OCC2C1CC1 (racemic) | 7.74 | 6.99 | 7.82 | 6.91 | 7.17 | 7 |
| O=C(NC1CCCCCC1)c1cn2c3c(cccc3c1=O)OCC2C1CC1 (racemic) | 8.45 | 7.04 | 8.51 | 7.00 | 7.91 | 29 |
| O=C(NC12CC3CC(CC(C3)C1)C2)c1cn2c3c(cccc3c1=O)OCC2C1CC1 (racemic) | 7.99 | 6.41 | 8.05 | 6.32 | 7.49 | 44 |
| CC(C)C1COc2cccc3c(=O)c(C(=O)NC45CC6CC(CC(C6)C4)C5)cn1c23 (racemic) | 8.37 | 6.49 | 8.43 | 6.44 | 7.91 | 86 |
| CCC1COc2c(F)ccc3c(=O)c(C(=O)NC45CC6CC(CC(C6)C4)C5)cn1c23 (racemic) | 8.02 | 6.41 | 8.13 | 6.34 | 7.57 | 53 |
| CCC1COc2c(F)c(F)cc3c(=O)c(C(=O)NC45CC6CC(CC(C6)C4)C5)cn1c23 (racemic) | 7.43 | 5.76 | 7.48 | 5.74 | 6.84 | 53 |
| CCC1COc2c(OC)ccc3c(=O)c(C(=O)NC45CC6CC(CC(C6)C4)C5)cn1c23 (racemic) | 8.04 | 6.28 | 8.17 | 6.23 | 7.62 | 77 |
| O=C(NC12CC3CC(CC(C3)C1)C2)c1cn2c3c(cccc3c1=O)OC(c1ccccc1)C2c1ccccc1 (racemic) | < 5.00 | < 5.00 | < 5.00 | < 5.00 |  |  |
| Cc1cc2c3c(c1)c(=O)c(C(=O)NC14CC5CC(CC(C5)C1)C4)cn3C(c1ccccc1)CO2 (racemic) |  |  |  |  | 6.33 |  |
